In patent US9555061B2, “Synthesis and analysis of compounds capable of inducing differentiation of human mesenchymal stems cells into hepatocytes” (National University Corporation Torrori University, priority 2011, dated 2017):

Tests used:
[1] = system: Wnt/β-catenin signaling pathway; experiment: Ability of inhibiting Wnt/β-catenin pathway, luciferase assay (UE7T-13); type: cell-based, human; conditions: 8 days after the treatment; pTCF4-CMV-luciferase reporter
Description: FIG. 3 is a schematic diagram illustrating how to establish a human mesenchymal stem cell stably expressing a β-catenin/TCF4/luciferase reporter gene. FIG. 3 illustrates how to construct pTCF4-CMVpro-GL4.20 plasmid by using a luciferase expression vector. The pTCF4-CMVpro-GL4.20 plasmid contains three TCF4 sequences […] upstream of a CMV promoter to express luciferase. In addition, pCMVpro-GL4.20 plasmid was constructed as a control. The resulting plasmids were each linearized, introduced into UE7T-13 by electroporation, and selected using puromycin (0.25 μg/ml) supplemented in a medium. Puromycin-resistant cells were cloned and used for a luciferase assay.
The cell line having a vector stably expressing luciferase was seeded on a 24-well plate, and was cultured at 37° C. At the next day, the medium was changed to a medium containing IC-2, etc., and the cell line was further cultured at 37° C. After that, at days 1, 4, and 8, a luciferase assay system (Promega) was used and the luciferase activity was read with a fluorescence plate reader (ARVO) at a wavelength of 556 nm.

[2] = system: clinical specimen-derived mesenchymal stem cells; experiment: PAS staining in clinical specimen-derived mesenchymal stem cells; type: cell-based, human; conditions: day 8, PN-3-13 20 μM, IC-2 40 μM
Procedure: PAS staining was performed according to the following procedure. A cover glass that had been sterilized with 100% ethanol was placed on a 12-well plate. Cells were seeded on the cover glass at a cell density of 1.8×10^4 cells/cm^2. This day was designated as day 0. At day 1 corresponding to the next day, each medium was changed to a medium containing HC-2 (at a final concentration of 20 μM), PN-3-13 (at a final concentration of 20 μM), IC-2 (at a final concentration of 40 μM), or 0.1% DMSO. At day 4, the medium was changed in a manner similar to that at day 1, and the cells were cultured until day 8. At day 8, the cells were washed twice with PBS and were fixed with 4% paraformaldehyde for 30 min. As a negative control, α-amylase (Nacalai Tesque) at a final concentration of 10 mg/ml was added, and the cells were incubated therewith at 37° C. for 1 h to digest their glycogen. Subsequently, the cells were treated with 1% aqueous periodic acid for 5 min. Then, the cells were treated with a Schiff reagent (Nacalai Tesque) for 15 min to stain glycogen. After that, the cells were washed three times with aqueous sulfurous acid and were then washed three times with distilled water. The nuclei were stained with Mayer's Hematoxylin (MUTO PURE CHEMICALS CO., LTD.) for 1 min. […]

[3] = system: UE7T-13 cells; experiment: Proliferation potential (toxicity), MTT assay (UE7T-13)
[4] = system: UE7T-13 cells; experiment: Immunocytochemistry of hepatocyte markers (UE7T-13); type: cell-based, human; conditions: day 16
Procedure: A cover glass (22×22 mm, […]) was sterilized with 70% EtOH and placed in a 6-well plate. Next, cells were seeded on the cover glass and cultured in a medium containing IC-2, etc. At 8, 16, and […] after the initiation of the culture, the cells were washed twice with PBS. Then, the cells were treated with 4% paraformaldehyde/PBS for 20 min and fixed onto the cover glass. After that, the cells were permeated with 0.2% Triton X-100 for 10 min. Subsequently, the cells were blocked with 3% BSA/PBS for 30 min. An anti-albumin antibody, anti-C/EBP antibody, anti-AFP antibody, or anti-CYP1A1 antibody was used as a primary antibody, and the cells were incubated therewith at 4° C. overnight. Next, an Alexa Fluoro 488 goat anti-mouse antibody or Alexa Fluoro 594 goat anti-rabbit antibody was used as a secondary antibody, and the cells were incubated therewith at room temperature for 1 h. DAPI was used for nuclear staining. Thereafter, 50% glycerol diluted with PBS was used to mount the cover glass. Finally, the cells were observed under a confocal laser microscope. The cells which had been cultured with 0.1% DMSO were used as a control.

[5] = system: UE7T-13 cells; experiment: Urea assay (UE7T-13); type: cell-based, human; conditions: day 16
Procedure: The cells were plated on a 24-well plate, and were cultured in a medium containing IC-2, etc. Ammonium chloride (at a final concentration of 5 mM) was added to the medium, and the cells were cultured for 48, 72, and 96 h. Then, an amount of urea in the medium was determined using a QuantiChrom Urea Assay Kit (BioAssay Systems) and a fluorescence plate reader (TECAN) at a wavelength of 520 nm.

[6] = system: Wnt/β-catenin signaling pathway; experiment: Luciferase assay in sorted bone marrow-derived mesenchymal stem cells; type: cell-based, human; conditions: 40 or 45 μM; 8 days after the treatment
Procedure: Human bone marrow mononuclear cells that had been purchased from Lonza Inc. were suspended in 1 ml of Hanks' balanced salt solution (HBSS, Gibco, Life Technologies Corp.) supplemented with a 100-fold diluted APC-labeled anti-CD90 antibody, a 407-fold diluted PE-labeled anti-CD271 antibody, and 2% fetal bovine serum (FBS, Defined, Thermo Fisher Scientific Inc.), and were stained on ice for 30 min. A flow cytometer (MoFlo XDP, Beckman Coulter Inc.) was used to selectively separate mesenchymal stem cells. The resulting cells were cultured in Dulbecco's Modified Eagle's Medium (Low Glucose, Gibco, Life Technologies Corp.) containing 20% FBS, 100 U/ml penicillin, […] streptomycin (Nacalai Tesque), and 20 ng/ml basic fibroblast growth factor (TRANS GENIC INC., Ltd.) on a 35-mm dish under conditions at 37° C. and 5% CO2. The medium was changed every 4 days. After colonies were formed, the cells were detached using a 0.025% trypsin/1 mM EDTA solution (Nacalai Tesque), split on a 100-mm dish, and cultured under conditions at 37° C. and 5% CO2. Then, the cells which were kept 70 to 80% confluent were detached using trypsin treatment. These cells in one dish were divided into four dishes for passage.
Cells were seeded on a 96-well plate at a cell density of 5.0×10^3 cells/cm^2. […]

“(6S,9aS)-6-phenyl-8-naphthalen-1-ylmethyl-4,7-dioxo-hexahydro-pyrazino[1,2-a]pyrimidine-1-carbocylic acid benzylamide [IC-2]” was tested, and the “concentration that significantly inhibited the Wnt/β-catenin signaling pathway” value [1] was no less than 15 µM, the “cellular glycogen accumulation compared with negative control (0.1% DMSO)” value [2] was “apparent increase” and the “concentration with very low cell toxicity toward UE7T-13 cells” value ([3]; days 2, 4, 8 of treatment) was no more than 20 µM. The “concentration at which proliferation potential did not remain” value ([3]; days 2, 4, and 8) was 50 µM, the “levels of expression of albumin, C/EBPα, CYP1A1, and CYP3A4” value [4] was “remarkably increased” and the “cellular urea synthesis compared with negative control (0.1% DMSO)” value [5] was “remarkably increased”. The “inhibition of the Wnt/β-catenin signaling pathway (luciferase activity)” value [6] was “significantly inhibited”.
